Results published in PMC9319634, “Antibacterial Peptide NP-6 Affects Staphylococcus aureus by Multiple Modes of Action” (International Journal of Molecular Sciences, 2022).
Peptide text beside a SMILES is read from it.

How the values were obtained:
[1] = system: mouse red blood cells; assay: Hemolysis assay; format: cell-based; conditions: 512 µg/mL (1MIC); mouse red blood cells in PBS 0.01 M pH 7.4, 37 °C, 1 h; absorbance 595 nm; 1% Triton X-100 = 100%; mean ± SD, n = 3
Procedure: The hemolytic activity of the peptide was evaluated according to Tang et al. with minor modifications. To prepare the red blood cell solution, 1.0 mL of fresh mouse red blood cells was centrifuged for 5 min at 1000× g, and the precipitates were resuspended in 10 mL of PBS (0.01 M, pH 7.4). A total of 50 µL of serial dilutions of peptides (2048, 1024, 512, 256, 128, 64, 32, 16, 8, and 4 µg/mL) were prepared in a 96-well plate by dissolving NP-6 and Nisin A in PBS (0.01 M, pH 7.4). Then, 50 µL of freshly prepared mouse red blood cell solution was added and incubated at 37 °C for 1 h. A total of 50 µL of PBS buffer only and 50 µL of Triton X-100 1% (w/v) were mixed with 50 µL of mouse red blood cell solution as negative and positive controls, respectively. After 1 h of incubation, all the samples were centrifuged at 1000× g for 5 min. The supernatant was collected, and the absorbance was at 595 nm with a UV–vis instrument at 25 °C. The percent hemolysis was calculated as the following equation:(1) %hemolysis=absorbancesample−absorbancenegative/absorbancepositive−absorbancenegative×100
Mouse red blood cells that were suspended in PBS and 1% Triton X-100 represented zero hemolysis and 100% hemolysis, respectively.

[2] = system: RAW 264.7 cells; assay: CCK-8 cytotoxicity assay; format: cell-based; conditions: CCK-8, 48 h incubation, absorbance 450 nm, mean, n = 3
Procedure: RAW 264.7 cells were purchased from the National Collection of Authenticated Cell Cultures (Shanghai, China). The cells were cultured in DMEM containing 10% FBS at 37 °C in a 5% CO2 incubator at constant temperature.
The Cell Counting Kit-8 (CCK-8) assay was conducted to measure the cytotoxicity of the peptides towards RAW 264.7 cells according to Deng et al.. The cells were incubated in Roswell Park Memorial Institute (RPMI)-1640 medium at 37 °C in a humidified atmosphere with 5% CO2. Then, they were added to a 96-well plate (3 × 10^3 cells/well) to adhere for 18 h. A total of 100 µL of the samples with different concentrations (256, 512, 1024, and 2048 µg/mL) diluted by H2O were added and incubated for another 48 h, after which the medium was disposed. A total of 100 µL of the CCK-8 test solution was added and incubated for 2 h at 37 °C. The absorbance values of the mixture at 450 nm were determined. The survival rate of cells was calculated according to the following formula:(2) Survival rate (%)=absorbancesample−absorbanceblank/absorbancecontrol−absorbanceblank×100

[3] = Serum stability (antimicrobial activity after incubation in fetal bovine serum, plate count); format: in vitro ADME; conditions: peptide 1.0 mg/mL in 50% fetal bovine serum, 37 °C, 0, 3 and 6 h; remaining antimicrobial activity by plate count (CFU); repeated three times
Procedure: The serum stability assay was conducted to evaluate the effect of serum on the antimicrobial activity of NP-6 using a method that was reported in a previous study. Peptide (1.0 mg/mL) was added to 50% fetal bovine serum and incubated at 37 °C for 0, 3, and 6 h, respectively. The cells that were incubated with PBS, NP-6, and serum were conducted as a blank and a control. The antimicrobial activity of NP-6 was measured using the plate count method. These assays were repeated three times independently. The inhibition rate of samples was calculated according to the following formula:(3) Inhibition rate (%)=Nblank−Nsample/Nblank×100 where Nblank is the colony forming units (CFU) of cells that were incubated with PBS and Nsample is the CFU of cells that were incubated with NP-6, NP-6+ serum, and serum, respectively. The inhibition rate of NP-6+ serum is expressed as the relative value to NP-6.

CC[C@H](C)[C@H](NC(=O)CNC(=O)[C@@H](NC(=O)[C@H](CCCCN)NC(=O)[C@@H](NC(=O)[C@H](CCCCN)NC(=O)[C@H](CCCCN)NC(=O)[C@H](CC(=O)O)NC(=O)CNC(=O)[C@H](C)N)[C@@H](C)CC)[C@@H](C)CC)C(=O)N[C@@H](CC(N)=O)C(=O)NCC(=O)N[C@@H](Cc1ccccc1)C(=O)NCC(=O)N[C@@H](CCCNC(=N)N)C(=O)N[C@H](C(=O)NCC(=O)N[C@@H](CCCNC(=N)N)C(=O)N[C@@H](CC(C)C)C(=O)O)[C@@H](C)CC [NP-6] (H-AGDKKIKIGINGFGRIGRL-OH)
hemolysis activity [1]: 2.39 ± 0.13% | survival rate of RAW264.7 cells ([2]; 1 × MIC (512 µg/mL)): 72.56% | survival rate of RAW264.7 cells ([2]; 2 × MIC (1024 µg/mL)): 20.26% | inhibition rate of NP-6 + serum samples relative to NP-6 [3]: exceeded 80%
